Experimental data: the CheMixHub drug solubility set

Assay: xn = mol fraction of the nth substance listed, in the solute-free solvent

O=C(O)c1cc([N+](=O)[O-])ccc1O + CO + O
solubility (g/100 g solution)
Settings | 278.15 K | 283.15 K | 288.15 K | 293.15 K | 298.15 K | 303.15 K | 308.15 K | 313.15 K | 318.15 K | 323.15 K
x2 = 0.05881 | 0.117 | 0.173 | 0.235 | 0.287 | 0.359 | 0.429 | 0.505 | 0.603 | 0.726 | 0.877
x2 = 0.1233 | 0.41 | 0.537 | 0.709 | 0.886 | 1.08 | 1.29 | 1.53 | 1.79 | 2.1 | 2.45
x2 = 0.1942 | 1.03 | 1.3 | 1.61 | 2 | 2.42 | 2.83 | 3.35 | 3.9 | 4.5 | 5.22
x2 = 0.2727 | 2.03 | 2.54 | 3.13 | 3.79 | 4.57 | 5.28 | 6.22 | 7.27 | 8.39 | 9.67
x2 = 0.3599 | 4.15 | 4.74 | 5.63 | 6.73 | 7.94 | 9.14 | 10.4 | 11.7 | 13.1 | 14.6
x2 = 0.4576 | 7.29 | 8.14 | 9.16 | 10.4 | 11.9 | 13.4 | 15.2 | 17.1 | 19.2 | 21.5
x2 = 0.5675 | 9.53 | 10.8 | 12.5 | 14.2 | 15.9 | 17.6 | 19.5 | 21.5 | 23.6 | 25.8
x2 = 0.6923 | 11.6 | 12.9 | 14.7 | 17 | 19.2 | 21.1 | 23.1 | 25.2 | 27.2 | 29.4
x2 = 0.835 | 13.8 | 15.1 | 16.8 | 18.7 | 21.1 | 23.3 | 25.3 | 27.6 | 29.8 | 32.4

O=C(O)C1CSCN1 (stereo not given) + O + CC#N
solubility (g/100 g solution)
Settings | x2 = 0.1 | x2 = 0.2 | x2 = 0.3 | x2 = 0.4 | x2 = 0.5 | x2 = 0.6 | x2 = 0.7 | x2 = 0.8 | x2 = 0.9
283.15 K | 0.0141 | 0.0241 | 0.0323 | 0.084 | 0.183 | 0.365 | 0.573 | 0.965 | 1.4
293.15 K | 0.0189 | 0.0303 | 0.0491 | 0.106 | 0.242 | 0.433 | 0.729 | 1.24 | 1.89
303.15 K | 0.0244 | 0.0416 | 0.0643 | 0.129 | 0.312 | 0.533 | 0.901 | 1.58 | 2.4
313.15 K | 0.0292 | 0.0548 | 0.0787 | 0.159 | 0.392 | 0.679 | 1.17 | 2.04 | 3.06
323.15 K | 0.0343 | 0.0734 | 0.0978 | 0.192 | 0.492 | 0.805 | 1.52 | 2.62 | 3.94

CC(=O)NC(CCC(N)=O)C(=O)O (stereo not given) + O + CCO
solubility (g/100 g solution)
Settings | 293.15 K | 298.15 K | 303.15 K | 308.15 K | 313.15 K | 318.15 K
x2 = 0.2647 | 0.629 | 0.869 | 0.998 | 1.29 | 1.49 | 1.75
x2 = 0.4475 | 1.45 | 1.76 | 2.23 | 2.56 | 2.78 | 3.17
x2 = 0.7641 | 3.01 | 3.62 | 4.93 | 6.04 | 7.27 | 8.61
x2 = 0.8293 | 2.93 | 3.69 | 4.49 | 5.32 | 6.47 | 7.52
x2 = 0.9284 | 3.11 | 3.48 | 4.31 | 5.04 | 6.17 | 7.23

CC(=O)NC(CCC(N)=O)C(=O)O (stereo not given) + O + CO
solubility (g/100 g solution)
Settings | 293.15 K | 298.15 K | 303.15 K | 308.15 K | 313.15 K | 318.15 K
x2 = 0.1998 | 1.22 | 1.48 | 1.76 | 2.06 | 2.62 | 3.27
x2 = 0.4906 | 2.54 | 2.73 | 3.45 | 4.16 | 5.01 | 5.92
x2 = 0.6921 | 3.1 | 3.54 | 4.77 | 5.99 | 7.07 | 8.56
x2 = 0.7712 | 3.1 | 3.37 | 4.17 | 4.97 | 6.05 | 7.41
x2 = 0.8999 | 3.14 | 3.34 | 4.37 | 5.12 | 5.77 | 7.05

O=C(O)c1ccc(C(=O)O)o1 + O + COCCOC
solubility (g/100 g solution)
Settings | 303.15 K | 308.15 K | 313.15 K | 318.15 K | 323.15 K | 328.15 K | 333.15 K | 338.15 K | 343.15 K
x2 = 0.1 | 1.42 | 1.44 | 1.5 | 1.57 | 1.65 | 1.75 | 1.83 | 1.93 | 2.05
x2 = 0.2 | 2.73 | 2.79 | 2.9 | 3.02 | 3.16 | 3.31 | 3.48 | 3.7 | 3.94
x2 = 0.3 | 3.75 | 3.9 | 4.06 | 4.22 | 4.39 | 4.58 | 4.79 | 5.05 | 5.33
x2 = 0.4 | 4.61 | 4.81 | 5.03 | 5.24 | 5.47 | 5.78 | 6.11 | 6.45 | 6.82
x2 = 0.5 | 5.53 | 5.75 | 6.03 | 6.31 | 6.69 | 7.05 | 7.45 | 7.81 | 8.16
x2 = 0.6 | 6.14 | 6.36 | 6.59 | 6.86 | 7.15 | 7.49 | 7.86 | 8.22 | 8.61
x2 = 0.7 | 5.57 | 5.8 | 6.08 | 6.35 | 6.64 | 6.93 | 7.24 | 7.62 | 8.03
x2 = 0.8 | 4.68 | 4.88 | 5.09 | 5.35 | 5.55 | 5.83 | 6.13 | 6.48 | 6.86
x2 = 0.9 | 4.41 | 4.57 | 4.74 | 4.91 | 5.11 | 5.32 | 5.55 | 5.87 | 6.22

O=C(O)c1ccc(C(=O)O)o1 + O + COCCOCCOC
solubility (g/100 g solution)
Settings | x2 = 0.1 | x2 = 0.2 | x2 = 0.3 | x2 = 0.4 | x2 = 0.5 | x2 = 0.6 | x2 = 0.7 | x2 = 0.8 | x2 = 0.9
303.15 K | 1.37 | 2.07 | 2.83 | 4.05 | 5.13 | 6.23 | 6.17 | 5.55 | 3.4
308.15 K | 1.42 | 2.15 | 2.96 | 4.22 | 5.35 | 6.45 | 6.42 | 5.78 | 3.72
313.15 K | 1.47 | 2.23 | 3.09 | 4.4 | 5.58 | 6.69 | 6.69 | 6.02 | 4.05
318.15 K | 1.53 | 2.34 | 3.23 | 4.59 | 5.79 | 6.96 | 6.97 | 6.3 | 4.34
323.15 K | 1.59 | 2.46 | 3.37 | 4.79 | 6.03 | 7.25 | 7.28 | 6.59 | 4.64
328.15 K | 1.67 | 2.56 | 3.53 | 5 | 6.29 | 7.62 | 7.59 | 6.96 | 4.91
333.15 K | 1.74 | 2.68 | 3.71 | 5.23 | 6.58 | 8.03 | 7.93 | 7.36 | 5.21
338.15 K | 1.84 | 2.83 | 3.88 | 5.46 | 6.96 | 8.47 | 8.33 | 7.78 | 5.51
343.15 K | 1.92 | 2.94 | 4.01 | 5.62 | 7.24 | 8.75 | 8.61 | 8.14 | 5.75
348.15 K | 2 | 3.1 | 4.17 | 5.84 | 7.52 | 9.16 | 9.15 | 8.46 | 6.05
353.15 K | 2.07 | 3.25 | 4.3 | 6.03 | 7.75 | 9.47 | 9.63 | 8.76 | 6.31
